In one experiment the target is Collagenase 3 (Homo sapiens, UniProt P45452). Put plainly: Activity Assay: Stock solution of substrate (Mca-Lys-Pro-Leu-Gly-Leu-Dpa-Ala-Arg-NH2) was prepared in DMSO at a concentration of 6 mM. Assays were performed in an assay buffer (50 mM Tris pH 7.5, 300 mM NaCl, 10 uM ZnSO4, 5 mM CaCl2, 0.005% Brij-35). The final DMSO concentration in all assays was 1.0%. […] The assays were carried out at 37° C. […] The reaction mixtures were preincubated with the inhibitors for 30 minutes. The reactions were started by the addition of MMP substrate, and the fluorescence intensity changes were measured after 60 minutes. The obtained fluorescence values were normalized and % inhibition values calculated. Dose response curves were determined from 6 concentration points using three fold dilution steps, each concentration point was determined in dupllicate. IC50 values were calculated from the dose response curves.

In experiment [1] the target is Matrix metalloproteinase-9 (Homo sapiens, UniProt P14780). In words: (§1) Activity Assay: Stock solution of substrate (Mca-Lys-Pro-Leu-Gly-Leu-Dpa-Ala-Arg-NH2) was prepared in DMSO at a concentration of 6 mM. Assays were performed in an assay buffer (50 mM Tris pH 7.5, 300 mM NaCl, 10 uM ZnSO4, 5 mM CaCl2, 0.005% Brij-35). The final DMSO concentration in all assays was 1.0%. […] The assays were carried out at 37° C. The fluorescence changes, resulting from the substrate cleavage, were detected using excitation at 340 nm and emission wavelength of 405 nm using a Wallac 1420 Microplate Reader. The reaction mixtures were preincubated with the inhibitors for 30 minutes. The reactions were started by the addition of MMP substrate, and the fluorescence intensity changes were measured after 60 minutes. The obtained fluorescence values were normalized and % inhibition values calculated. Dose response curves were determined from 6 concentration points using three fold dilution steps, each concentration point was determined in dupllicate. IC50 values were calculated from the dose response curves.
Chain of Matrix metalloproteinase-9 (P14780 whole entry): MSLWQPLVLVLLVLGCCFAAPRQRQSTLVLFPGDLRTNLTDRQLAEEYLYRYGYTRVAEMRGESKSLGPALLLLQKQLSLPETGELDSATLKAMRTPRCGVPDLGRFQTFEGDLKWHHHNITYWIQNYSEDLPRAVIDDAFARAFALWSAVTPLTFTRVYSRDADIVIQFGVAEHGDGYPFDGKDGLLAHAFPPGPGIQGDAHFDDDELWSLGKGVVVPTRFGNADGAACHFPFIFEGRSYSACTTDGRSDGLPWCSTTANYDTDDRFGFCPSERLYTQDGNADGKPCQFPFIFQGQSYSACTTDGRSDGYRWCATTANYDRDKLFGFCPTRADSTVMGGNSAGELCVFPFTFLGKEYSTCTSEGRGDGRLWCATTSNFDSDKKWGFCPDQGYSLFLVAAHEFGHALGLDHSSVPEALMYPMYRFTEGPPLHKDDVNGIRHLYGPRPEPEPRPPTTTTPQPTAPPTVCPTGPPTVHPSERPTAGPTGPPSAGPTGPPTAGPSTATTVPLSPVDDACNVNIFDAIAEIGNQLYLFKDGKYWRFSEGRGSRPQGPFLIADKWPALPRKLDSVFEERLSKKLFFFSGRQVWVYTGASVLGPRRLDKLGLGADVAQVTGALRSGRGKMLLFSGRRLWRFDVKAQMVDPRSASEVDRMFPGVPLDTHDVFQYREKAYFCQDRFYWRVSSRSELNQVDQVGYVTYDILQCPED

In experiment [2] the target is 72 kDa type IV collagenase (Homo sapiens, UniProt P08253). The description is as §1.
Chain of 72 kDa type IV collagenase (P08253 whole entry): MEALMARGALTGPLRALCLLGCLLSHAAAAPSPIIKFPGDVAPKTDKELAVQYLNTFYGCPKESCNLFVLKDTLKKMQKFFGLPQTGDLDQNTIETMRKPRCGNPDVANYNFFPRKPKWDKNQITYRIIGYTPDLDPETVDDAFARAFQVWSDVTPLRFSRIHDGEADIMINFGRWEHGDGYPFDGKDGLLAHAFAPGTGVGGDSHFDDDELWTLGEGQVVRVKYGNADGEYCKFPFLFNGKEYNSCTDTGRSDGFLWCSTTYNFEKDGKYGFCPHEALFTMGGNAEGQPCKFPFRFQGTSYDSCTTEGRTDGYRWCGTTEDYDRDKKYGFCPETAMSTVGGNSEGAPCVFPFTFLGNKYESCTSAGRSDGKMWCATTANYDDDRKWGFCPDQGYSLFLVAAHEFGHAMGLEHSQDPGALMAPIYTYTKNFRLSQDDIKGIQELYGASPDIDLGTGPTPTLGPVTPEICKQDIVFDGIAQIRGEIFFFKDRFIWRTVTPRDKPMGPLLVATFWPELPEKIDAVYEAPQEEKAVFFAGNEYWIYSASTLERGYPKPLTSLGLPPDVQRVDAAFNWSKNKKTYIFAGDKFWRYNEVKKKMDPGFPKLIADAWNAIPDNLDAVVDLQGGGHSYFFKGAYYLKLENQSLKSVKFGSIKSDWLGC
The target in the next experiment is T1, Interstitial collagenase (Homo sapiens, UniProt P03956).
T1 sequence (P03956 whole entry): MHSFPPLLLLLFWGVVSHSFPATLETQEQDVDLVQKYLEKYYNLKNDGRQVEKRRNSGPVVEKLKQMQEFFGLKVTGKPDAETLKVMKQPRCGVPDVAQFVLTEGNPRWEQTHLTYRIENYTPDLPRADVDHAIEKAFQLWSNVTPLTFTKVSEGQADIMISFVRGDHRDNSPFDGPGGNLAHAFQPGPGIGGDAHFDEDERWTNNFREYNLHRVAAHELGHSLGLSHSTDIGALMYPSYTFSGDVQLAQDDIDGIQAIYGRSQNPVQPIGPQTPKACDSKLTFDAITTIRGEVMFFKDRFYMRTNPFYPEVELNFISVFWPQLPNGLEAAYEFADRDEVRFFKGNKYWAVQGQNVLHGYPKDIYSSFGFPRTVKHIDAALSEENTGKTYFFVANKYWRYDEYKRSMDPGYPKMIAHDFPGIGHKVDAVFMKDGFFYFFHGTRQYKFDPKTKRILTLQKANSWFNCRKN
Described as §1.

Consider `O=C(O)c1csc(CN(Cc2ccc(OCc3ccccc3)cc2)CC(c2ccccc2)c2ccccc2)n1`, for which the IC50 (commonly the concentration that gives 50% inhibition) at Collagenase 3 is 1.76 µM; in experiment [1], 10 µM; in experiment [2] it was 26 µM.

As to `CCOC(=O)c1csc(CN(Cc2ccc(F)cc2)Cc2ccc(OCc3ccccc3)cc2)n1`, the half-maximal inhibitory concentration (IC50) on Collagenase 3 is 27 µM; in experiment [1], 140 µM; in experiment [2] it was more than 500 µM; at Interstitial collagenase it was 280 µM.
